Results on nine compounds are retold here after patent US7427627B2, “N-(4-(4-methylthiazol-5-yl) pyrimidin-2-yl)-N-phenylamines as antiproliferative compounds” (Cyclacel Limited, priority 2001, dated 2008).

The test system of assay [1] is Saos-2. The experiment in a line: 72-h MTT cytotoxicity assay, Saos-2. Type of assay: cell-based. Particulars: Homo sapiens, SAOS-2, read-out: 72-h MTT in vitro IC50 (μM) Saos-2; Table 1; 72 h. On the procedure: (§1) The compounds from the examples above were subjected to a standard cellular proliferation assay using human tumour cell lines obtained from the ATCC (American Type Culture Collection, 10801 University Boulevard, Manessas, Va. 20110-2209, USA). Standard 72-h MTT (thiazolyl blue; 3-[4,5-dimethylthiazol-2-yl]-2,5-diphenyltetrazolium bromide) assays were performed (Haselsberger, K.; Peterson, D. C.; Thomas, D. G.; Darling, J. L. Anti Cancer Drugs 1996, 7, 331-8; Loveland, B. E.; Johns, T. G.; Mackay, I. R.; Vaillant, F.; Wang, Z. X.; Hertzog, P. J. Biochemistry International 1992, 27, 501-10). In short: cells were seeded into 96-well plates according to doubling time and incubated overnight at 37° C. Test compounds were made up in DMSO and a 1/3 dilution series prepared in 100 μL cell media, added to cells (in triplicates) and incubated for 72 ho at 37° C. MTT was made up as a stock of 5 mg/mL in cell media and filter-sterilised. Media was removed from cells followed by a wash with 200 μL PBS. MTT solution was then added at 20 μL per well and incubated in the dark at 37° C. for 4 h. MTT solution was removed and cells again washed with 200 μL PBS. MTT dye was solubilised with 200 μL per well of DMSO with agitation.
(In general: Tetrazolium assays rely on reduction of a dye to a coloured formazan, in cell work by metabolically active cells.)

In assay [2] the target is T1, CDK2/cyclin E (Homo sapiens, UniProt P24941).
T1 construct: His6
The experiment in a line: Kinase assay CDK2/cyclin E. Type of assay: biochemical. Particulars: Table 1; read-out: Kinase inhibition, IC50 (μM) CDK2/E.

For assay [3], the target named is CDK4/cyclin D1 (Homo sapiens, UniProt P11802). The experiment in a line: Kinase assay CDK4/cyclin D1.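 Also: Enzyme: His6-tagged recombinant human CDK4 produced in baculovirus-infected Sf9 insect cells and purified by metal-chelate chromatography.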
For assay [4], the system named is A549. As to the kind of experiment: 72-h MTT cytotoxicity assay, A549. Type of assay: cell-based, human. The note with it: Homo sapiens, A549, read-out: 72-h MTT in vitro IC50 (μM) A549; Table 1; 72 h. On the procedure:
In short: cells were seeded into 96-well plates according to doubling time and incubated overnight at 37° C. Test compounds were made up in DMSO and a 1/3 dilution series prepared in 100 μL cell media, added to cells (in triplicates) and incubated for 72 ho at 37° C. MTT was made up as a stock of 5 mg/mL in cell media and filter-sterilised. Media was removed from cells followed by a wash with 200 μL PBS. MTT solution was then added at 20 μL per well and incubated in the dark at 37° C. for 4 h. MTT solution was removed and cells again washed with 200 μL PBS. MTT dye was solubilised with 200 μL per well of DMSO with agitation.

The subject of assay [5] is HT29. As to the kind of experiment: 72-h MTT cytotoxicity assay, HT29. The note with it: Homo sapiens, HT-29, read-out: 72-h MTT in vitro IC50 (μM) HT29; Table 1; 72 h. Type of assay: cell-based. On the procedure:
as §1

Structures are written as SMILES. Where two headings read alike, the source gives them in different places.

CDK4/cyclin D1, sequence (P11802 whole entry): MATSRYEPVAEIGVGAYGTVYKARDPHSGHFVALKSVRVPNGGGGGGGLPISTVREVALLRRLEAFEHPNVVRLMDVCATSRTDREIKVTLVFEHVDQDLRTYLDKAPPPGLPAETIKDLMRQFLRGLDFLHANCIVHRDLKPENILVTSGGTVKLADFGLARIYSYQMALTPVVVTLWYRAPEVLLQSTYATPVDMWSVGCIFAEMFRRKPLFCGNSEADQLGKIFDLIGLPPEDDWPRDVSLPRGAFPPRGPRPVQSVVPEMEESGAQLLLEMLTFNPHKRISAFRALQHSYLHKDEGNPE
CDK4/cyclin D1, sequence (P24385 whole entry partner): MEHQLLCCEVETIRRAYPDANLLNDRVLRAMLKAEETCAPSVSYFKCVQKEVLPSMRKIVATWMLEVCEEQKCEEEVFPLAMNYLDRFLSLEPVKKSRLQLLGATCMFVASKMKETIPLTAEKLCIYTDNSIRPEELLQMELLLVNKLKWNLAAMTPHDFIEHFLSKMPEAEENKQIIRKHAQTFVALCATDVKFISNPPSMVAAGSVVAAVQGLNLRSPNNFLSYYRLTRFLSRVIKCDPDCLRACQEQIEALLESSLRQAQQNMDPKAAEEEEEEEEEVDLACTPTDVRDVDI

With `Cc1c(-c2ccnc(Nc3ccc(Cl)cc3)n2)sc(=O)n1C` [Compound 35, 5-[2-(4-Chloro-phenylamino)-pyrimidin-4-yl]-3,4-dimethyl-3H-thiazol-2-one], the IC50 in assay [1] turned out to be 2.78 µM; in assay [2], 0.11 µM; in assay [3], 1.09 µM; in assay [4] it was 0.89 µM; in assay [5], 0.4 µM.
On to `COc1ccc(Nc2nccc(-c3sc(=O)n(C)c3C)n2)cc1` [Compound 36, 5-[2-(4-Methoxy-phenylamino)-pyrimidin-4-yl]-3,4-dimethyl-3H-thiazol-2-one], for which the IC50 in assay [1] amounted to 3.53 µM; in assay [2], 0.25 µM; in assay [3], 0.96 µM; in assay [4] it was 0.68 µM; in assay [5], 0.69 µM.
The matching figures for `Cc1c(-c2ccnc(Nc3cccc(O)c3)n2)sc(=O)n1C` [Compound 37, 5-[2-(3-Hydroxy-phenylamino)-pyrimidin-4-yl]-3,4-dimethyl-3H-thiazol-2-one]: 0.98 µM, 0.12 µM, 1.41 µM, 0.66 µM and 1.99 µM.
Regarding `Cc1c(-c2ccnc(Nc3ccc(F)c([N+](=O)[O-])c3)n2)sc(=O)n1C` [Compound 38, 5-[2-(4-Fluoro-3-nitro-phenylamino)-pyrimidin-4-yl]-3,4-dimethyl-3H-thiazol-2-one], the IC50 in assay [1] worked out at 2.17 µM; in assay [2], 0.12 µM; in assay [3], 2.33 µM; in assay [4] it was 1.12 µM; in assay [5], 0.55 µM.
As for `Cc1ccc(Nc2nccc(-c3sc(=O)n(C)c3C)n2)cc1I` [Compound 40, 5-[2-(3-Iodo-4-methyl-phenylamino)-pyrimidin-4-yl]-3,4-dimethyl-3H-thiazol-2-one], the IC50 was 22 µM in assay [1]; 0.7 µM in assay [2]; 3.98 µM in assay [3] (read-out: Kinase inhibition, IC50 (μM) CDK4/D1, Table 1); 6.63 µM in assay [4]; 7.74 µM in assay [5].
Take `Cc1nc(NS(C)(=O)=O)sc1-c1ccnc(Nc2cccc([N+](=O)[O-])c2)n1` [Compound 56, N-{4-Methyl-5-[2-(3-nitro-phenylamino)-pyrimidin-4-yl]-thiazol-2-yl}-methane sulfonamide]: the IC50 in assay [1] turned out to be 0.16 µM; in assay [2] it was 0.01 µM; in assay [3] it was 1.13 µM; in assay [4], 0.1 µM; in assay [5], 0.17 µM.
As for `Cc1nc(NCCO)sc1-c1ccnc(Nc2cccc([N+](=O)[O-])c2)n1` [Compound 58, 2-{4-Methyl-5-[2-(3-nitro-phenylamino)-pyrimidin-4-yl]-thiazol-2-ylamino}-ethanol], the IC50 in assay [1] stood at 0.06 µM; in assay [2], 0.004 µM; in assay [3], 0.11 µM; in assay [4], 0.01 µM; in assay [5], 0.09 µM.
Consider `Cc1nc(NC(=O)CCl)sc1-c1ccnc(Nc2cccc([N+](=O)[O-])c2)n1` [Compound 60, 2-Chloro-N-{4-methyl-5-[2-(3-nitro-phenylamino)-pyrimidin-4-yl]-thiazol-2-yl}-acetamide], for which the IC50 in assay [1] is 0.21 µM; in assay [2], 0.07 µM; in assay [3], 0.86 µM; in assay [4], 0.15 µM; in assay [5] it was 0.25 µM.
The matching figures for `Cc1nc(NC(=O)CCl)sc1-c1ccnc(Nc2ccc(F)cc2)n1` [Compound 61, 2-Chloro-N-{5-[2-(4-fluoro-phenylamino)-pyrimidin-4-yl]-4-methyl-thiazol-2-yl}-acetamide]: 0.3 µM, 0.23 µM, 0.68 µM, 0.33 µM and 0.11 µM.
